The target in one series is T1, human serotonin 5-HT6R (Homo sapiens, UniProt P50406).
T1 construct: expressed in transfected cells; host or cells: HEK-293
The series can be described thus: Radioligand binding assay, 5-HT6R, [3H]-LSD displacement. How it is done:
Five selective radioligands were employed (Table 1).
Radioligand binding assays were used to determine the affinity of the synthesized compounds for human serotonin 5-HT6R, which were stably expressed in HEK-293 cells. […] Each compound was tested in triplicate at 7 to 8 different concentrations (10^−11 to 10^−4 M). The inhibition constants (Ki) were calculated using the Cheng–Prusoff equation [40], and the results are expressed as the mean of at least two independent experiments.

For a further series, the target named is T2, dopaminergic D2LR (Homo sapiens, UniProt P14416).
T2 construct: expressed in transfected cells; host or cells: HEK-293
T2 sequence (P14416 whole entry): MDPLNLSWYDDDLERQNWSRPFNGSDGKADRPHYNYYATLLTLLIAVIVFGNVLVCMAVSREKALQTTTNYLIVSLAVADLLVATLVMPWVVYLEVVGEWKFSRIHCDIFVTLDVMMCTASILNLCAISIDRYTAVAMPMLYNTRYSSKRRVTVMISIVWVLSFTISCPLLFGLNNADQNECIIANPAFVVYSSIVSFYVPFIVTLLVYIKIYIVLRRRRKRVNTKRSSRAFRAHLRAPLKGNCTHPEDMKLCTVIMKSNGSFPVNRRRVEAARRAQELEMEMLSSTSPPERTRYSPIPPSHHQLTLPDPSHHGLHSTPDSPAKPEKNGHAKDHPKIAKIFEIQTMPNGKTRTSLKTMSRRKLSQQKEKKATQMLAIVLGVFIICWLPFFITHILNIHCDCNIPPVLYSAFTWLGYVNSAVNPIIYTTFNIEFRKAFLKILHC
In words: Radioligand binding assay, D2LR, [3H]-Raclopride. Particulars: human D2L receptor stably expressed in HEK-293 cells; read-out: Ki D2 [3H]-Raclopride.

The next series concerns the target T3, 5-HT1A (Homo sapiens, UniProt P08908).
T3 construct: expressed in transfected cells; host or cells: HEK-293
T3 sequence (P08908 1-422): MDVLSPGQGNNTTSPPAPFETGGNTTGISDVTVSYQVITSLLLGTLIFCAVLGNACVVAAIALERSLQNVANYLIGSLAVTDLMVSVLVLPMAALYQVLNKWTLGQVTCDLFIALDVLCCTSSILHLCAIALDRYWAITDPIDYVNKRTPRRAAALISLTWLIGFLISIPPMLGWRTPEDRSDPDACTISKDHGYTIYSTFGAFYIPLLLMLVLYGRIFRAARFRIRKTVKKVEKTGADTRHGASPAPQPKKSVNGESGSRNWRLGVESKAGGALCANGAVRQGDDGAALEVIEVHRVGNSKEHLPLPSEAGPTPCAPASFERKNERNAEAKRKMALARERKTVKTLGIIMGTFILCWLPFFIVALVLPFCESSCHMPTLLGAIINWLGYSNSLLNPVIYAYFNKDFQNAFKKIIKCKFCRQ
The series can be described thus: Radioligand binding assay, 5-HT1A, [3H]-8-OH-DPAT. The note with it: human receptor stably expressed in HEK-293 cells.

Another series has as its target T4, 5-HT2A (Homo sapiens, UniProt P28223).
T4 construct: expressed in transfected cells; host or cells: HEK-293
In words: Radioligand binding assay, 5-HT2A, [3H]-Ketanserin. Particulars: human receptor stably expressed in HEK-293 cells.

A further series has as its target T5, 5-HT7bR (Homo sapiens, UniProt P34969).
T5 construct: expressed in transfected cells; host or cells: HEK-293
The series can be described thus: Radioligand binding assay, 5-HT7bR, [3H]-5-CT. Particulars: human 5-HT7b receptor stably expressed in HEK-293 cells; read-out: Ki 5-HT7 [3H]-5-CT.

Series [1] is described as follows: Body weight of non-obese rats fed only standard diet. The note with it: rats consuming standard feed, 5 mg/kg b.w. i.p. Format: in vivo, rat. As for the experimental part:
Male Wistar rats (170–190 g) were housed in a pair in plastic cages in constant temperature facilities exposed to a light-dark cycle. Control group (standard diet + vehicle) received vehicle (1% Tween 80, intraperitoneally), while the test group (standard diet + 6 or standard diet + 26) was injected (intraperitoneally) with 6 or 26 at the dose of 5 mg/kg b.w. dissolved in 1% Tween 80 (1 mL/kg). Body weights were measured daily immediately prior to administration of drugs.

The next series is described as follows: Lipophilicity by RP-TLC. The note with it: RP-18 TLC, water/methanol, extrapolated to 100% water. Format: physicochemical. As for the experimental part:
For comparison, the active arylmethyl-triazine compounds previously found (1–3) were also examined. Stationary phase RP-18 and mixtures of water/methanol […] as a mobile phase were employed. RM values were calculated from the RF data obtained. […] The regression coefficients (r^2) determined for all compounds were higher than 0.95. On the basis of the linear relationship between RM values and the volume fraction of methanol, values of RM0 in the systems analyzed corresponding to 100% of water were obtained by extrapolation. RM0 values received for the compounds tested ranged from 3.14 to 4.49 (Figure 6).
The mobile phases were prepared by mixing the respective amounts of water and organic modifier (methanol) in a range from 40 to 90% (v/v) in 5% increments. TLC was performed on Silica gel 60RP-18 F254 plates (7 × 10 cm) plates (Merck, Darmstadt, Germany). Methanol was used to prepare the solutions of the substances. Solutions (10 µL) of the analyzed compounds were applied to the plates as 5 mm bands, 10 mm apart and 10 mm from the lower edge and sides of the plates, by using Linomat V applicator (Camag, Basel, Switzerland). The vertical chamber (Sigma–Aldrich, St. Louis, MI, USA), 20 × 10 × 18 cm in size, was saturated with mobile phase for 20 min. Development was carried out over 9 cm from the starting line at a temperature of 20 °C. Next, the plates were dried at room temperature, and the spots were observed under ultraviolet light at 254 nm and/or 366 nm (UV lamp, Camag, Basel, Switzerland). In each case, sharp and symmetric spots without a tendency for tailing were obtained. Each experiment was run in triplicate and mean RF (retardation factor) values were calculated.
Starting from the RF values, the RM parameters were computed as described in the formula:RM = log(1/RF − 1)
The linear correlations between the RM values of the substances and the concentration of methanol in mobile phases were calculated for each compound with the Soczewiński-Wachtmeister equation [22]:RM = RM0 + aC where C is the concentration of the organic modifier (in %) in the mobile phase, a is the slope, and RM0 is the […].

Another series deals with HEK-293 cells. In words: Toxicity in vitro, MTS test. Format: cell-based. Particulars: 0.1 μM–100 μM, 72 h. As for the experimental part: The preliminary evaluation of the safety profile for the most promising 5-HT6R ligands 6 and 26 was performed in vitro with the HEK-293 eukaryotic cell line. The compounds examined were dissolved in culture growth media and incubated with cells for 72 h. Next, the MTS test was applied to determine the viability of the cells. […] The reference cytostatic drug doxorubicin (DX) at the very low concentration 1 μM was also cytotoxic.
The ATCC CRL 1573 HEK-293 cells were seeded in 96-well plates (NuncTM) at a concentration of 1 × 10^4 cells/well in 200 μL in Dulbecco’s Modified Eagle’s Medium (Gibco®) supplemented with 10% fetal bovine serum (Gibco®), and cultured at 37 °C in an atmosphere containing 5% of CO2 for 24 h to reach 60% confluence. The 10 mM stock solutions of 5-HT6R ligands 6 and 26 in DMSO were diluted into fresh growth medium and added into the microplates at the final concentrations 0.1 μM –100 μM. […] The cytostatic drug doxorubicin (Sigma-Aldrich) at the concentration 1 μM was used as a reference. After 72 h of incubation 20 μL of CellTiter 96® AQueous Non-Radioactive Cell Proliferation Assay (MTS) (Promega®) was added to each well and the cells were incubated under the same conditions for 2 h. The absorbance of the samples was measured using a microplate reader EnSpire (PerkinElmer, Waltham, MA, USA) at 490 nm. Statistical significance was analyzed by GraphPad Prism™ software v. 5.01 (GraphPad Software, La Jolla, CA, USA) using One-way ANOVA and Bonferroni’s Multiple Comparison Post Test.
A general note: Formazan colour is commonly taken as a measure of viable cells.

Several values for one entry are separate records, joined by “and”; a condition that tells them apart may be missing. Equal entries are not always repeated.

T1 sequence (P50406 whole entry): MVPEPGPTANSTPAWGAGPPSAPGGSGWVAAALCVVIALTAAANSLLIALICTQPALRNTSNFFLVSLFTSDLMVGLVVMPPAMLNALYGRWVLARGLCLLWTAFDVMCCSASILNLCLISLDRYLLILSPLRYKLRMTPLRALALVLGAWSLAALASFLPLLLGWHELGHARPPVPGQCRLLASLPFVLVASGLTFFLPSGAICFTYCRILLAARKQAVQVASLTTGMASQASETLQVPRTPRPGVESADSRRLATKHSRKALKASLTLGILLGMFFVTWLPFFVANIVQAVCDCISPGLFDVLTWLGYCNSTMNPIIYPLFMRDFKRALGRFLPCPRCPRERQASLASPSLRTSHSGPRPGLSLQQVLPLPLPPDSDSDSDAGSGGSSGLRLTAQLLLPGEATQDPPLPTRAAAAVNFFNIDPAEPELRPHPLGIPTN
T4 sequence (P28223 whole entry): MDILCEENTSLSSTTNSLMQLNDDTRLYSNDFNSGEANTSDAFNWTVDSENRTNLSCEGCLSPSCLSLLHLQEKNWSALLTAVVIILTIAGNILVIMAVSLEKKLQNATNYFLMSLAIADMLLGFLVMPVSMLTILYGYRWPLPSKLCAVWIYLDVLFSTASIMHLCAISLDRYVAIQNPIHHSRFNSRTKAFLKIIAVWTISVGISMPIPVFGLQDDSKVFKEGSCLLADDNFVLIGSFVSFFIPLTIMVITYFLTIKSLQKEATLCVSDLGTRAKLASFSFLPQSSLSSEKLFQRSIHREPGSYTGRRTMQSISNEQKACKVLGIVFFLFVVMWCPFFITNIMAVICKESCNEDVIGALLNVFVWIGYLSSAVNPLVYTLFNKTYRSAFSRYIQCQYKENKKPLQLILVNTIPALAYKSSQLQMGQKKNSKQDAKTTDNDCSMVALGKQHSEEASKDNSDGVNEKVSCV
T5 sequence (P34969 1-432 limits assumed): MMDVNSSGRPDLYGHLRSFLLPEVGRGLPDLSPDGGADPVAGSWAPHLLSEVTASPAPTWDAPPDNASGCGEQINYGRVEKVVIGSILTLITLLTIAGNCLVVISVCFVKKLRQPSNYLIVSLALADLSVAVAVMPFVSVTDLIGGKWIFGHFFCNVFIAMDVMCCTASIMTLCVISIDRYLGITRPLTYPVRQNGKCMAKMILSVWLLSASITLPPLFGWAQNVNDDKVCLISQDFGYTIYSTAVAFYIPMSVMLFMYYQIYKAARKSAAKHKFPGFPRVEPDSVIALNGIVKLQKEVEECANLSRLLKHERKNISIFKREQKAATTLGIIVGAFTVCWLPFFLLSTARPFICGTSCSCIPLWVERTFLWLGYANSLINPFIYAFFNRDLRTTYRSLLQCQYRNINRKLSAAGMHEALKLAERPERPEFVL

A word on the Ki: it is the equilibrium dissociation constant of an inhibitor or competing ligand from its target. Regarding `CN1CCN(c2nc(N)nc(CN3C(=O)NC(C)(c4ccc5ccccc5c4)C3=O)n2)CC1` (stereo not shown) [Compound 26, 3-((4-Amino-6-(4-methylpiperazin-1-yl)-1,3,5-triazin-2-yl)methyl)-5-methyl-5-(naphthalen-2-yl)imidazolidine-2,4-dione], the “selectivity towards competitive G-protein coupled receptors” value at human serotonin 5-HT6R (5-HT6R vs 5-HT1A, 5-HT2A, 5-HT7, D2) is 6–197 fold. The “selectivity over 5-HT7R” value at human serotonin 5-HT6R (5-HT6R vs 5-HT7R) is reported as 6 fold. The Ki on human serotonin 5-HT6R (human receptor stably expressed in HEK-293 cells, mean of at least two independent experiments, read-out: Ki 5-HT6 [3H]-LSD) was < 0.2 µM and 0.087 µM; at dopaminergic D2LR, 4.25 µM; on 5-HT1A it was 14.2 µM; on 5-HT2A it was 17.2 µM; on 5-HT7bR, 0.514 µM. In series [1], the “effect on body weight” value is reported as “No effects on body weight”. Also, the RM0 in “Lipophilicity by RP-TLC” is 3.76. Further, the “toxicity in HEK-293 cells” value in the series on HEK-293 cells is given as “no significant toxicity”.
